One assay has as its system Arabidopsis thaliana. The experiment in a line: Arabidopsis root length (root growth inhibition). It is filed as in vivo. As to conditions: 50 μM compound; for Arabidopsis (relative to DMSO): root length ratio vs DMSO control, lower = shorter root; for Arabidopsis root length: ratio vs DMSO control, Table 4. On the procedure:
Finally, FIGS. 7a-7h are the photos of the Arabidopsis thaliana plants and the inhibition of their roots growth by the compounds of the present invention. These experiments were conducted as follows. Seeds were washed with 70% ethanol for one minute and then with sterile water. Sterilisation was performed with 50% bleaching solution (3%) and 0.2% Triton x-100 for ten minutes followed by a five-time wash with sterile water. The seeds were placed in six well-plates with half Murashige and Skoog medium (MS; Duchefa, Haarlem, Netherlands), containing 1% sucrose (w/v), pH 5.8. The plates with Arabidopsis thaliana seeds were placed at 4° C. for two days and then transferred for seven days to growth chamber (22±2° C.) at day/light cycles of 16/8 h. The plates were placed vertically. In each plate, a control including 0.1% DMSO in the medium was added. The compounds of the present invention were tested for their herbicidal efficiency by diluting 1000 times a 50 mM stock in DMSO leading to a final concentration of 50 μM with 0.1% DMSO.
In Tables 1 and 2 above, Arabidopsis root length was measured after addition of 50-μM compound compared with the negative control (DMSO) treatment. Length values indicate the ratio between non-treated plates ([…]) and the length after the addition of 50 μM of each compound. Lower values indicate shorter root length, and consequently, larger effect.

The target of assay [1] is T1, Tobacco CGS (Nicotiana tabacum, UniProt Q9ZPL5).
T1 sequence (Q9ZPL5 79-540): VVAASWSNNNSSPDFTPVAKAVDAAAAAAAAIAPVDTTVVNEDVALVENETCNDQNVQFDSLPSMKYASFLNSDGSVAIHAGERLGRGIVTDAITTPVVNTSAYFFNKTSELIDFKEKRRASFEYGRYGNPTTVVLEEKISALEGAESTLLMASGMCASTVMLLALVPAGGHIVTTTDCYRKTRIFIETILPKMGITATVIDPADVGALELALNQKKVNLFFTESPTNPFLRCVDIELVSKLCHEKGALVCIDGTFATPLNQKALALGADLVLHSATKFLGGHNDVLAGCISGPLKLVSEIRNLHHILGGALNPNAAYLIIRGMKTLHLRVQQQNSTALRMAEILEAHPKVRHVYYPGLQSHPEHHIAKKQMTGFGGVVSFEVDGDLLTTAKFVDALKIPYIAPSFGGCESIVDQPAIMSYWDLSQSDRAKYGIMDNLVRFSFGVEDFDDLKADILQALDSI
Description: TEV experiment (relative to DMSO). It is filed as biochemical. Details: 6xHIS (N, cleaved yes); GB1 solubility tag (N, cleaved yes); made in house; host or cells: E. coli BL-21. As to the method: As discussed above, the first reaction in methionine biosynthesis in plants is catalyzed by the CGS enzyme. In this reaction, the formation of cystathionine is conducted by the γ-replacement of the phosphoryl substituent of O-phospho-homoserine by cysteine and consecutive release of an orthophosphate group.
Expression of recombinant CGS was done by transforming the pET-11 vector containing the DNA sequence of Tobacco CGS with a 6×HIS tag and GB1 solubility tag followed by TEV cleavage site into BL-21 cells. These cells were cultured at 37° C. and optical density (OD)=0.8 protein at 600 nm, and the expression was induced by addition of 1 mM IPTG for 16 hours at 25° C. The protein was purified to homogeneity onto nickel column and cleaved by o/n dialysis with the TEV protease. A second nickel column was used to separate the cleaved CGS from the TEV and GB1 solubility tag.
The direct activity of CGS was tested using the Malachite Green Phosphate Assay Kit (Sigma-Aldrich, cat #MAK307-1KT). It is a highly sensitive and robust experiment used to measure the release of free orthophosphate group based on quantification of the green-coloured complex formed between Malachite Green, molybdate, and free orthophosphate. The rapid colour formation from the reaction can be conveniently measured on a spectrophotometer via the absorbance at 620 nm.
The assay mixture (100 μl) contained 50 mM MOPS-NaOH (pH 7.5), 150 mM NaCl, 0.1 mM PLP and 1 μM purified CGS. The compounds of the present invention were added at a final concentration of 50 μM and reactions were initiated by adding 2 mM cysteine and 3 mM 0-phospho-L-homo-serine. After two-hour incubation at 25° C., 80 μL of each sample were transferred into a new 96 well-plate containing 20 μl of Malachite Green Reagent and incubated for additional 30 min at 25° C. Colour development was measured by a plate reader Tecan M200 (620 nm).

Another assay deals with Roquette. Description: Roquette assay spray. It is filed as in vivo.
Another assay has as its system BY2 Tobacco cells. The experiment in a line: BY-2 viability assay (PrestoBlue). As to conditions: viability relative to DMSO-treated cells, 25 μM, 48 hours; for Tobacco cells BY-2 (all (relative to DMSO)): Table 3; for Tobacco cells BY-2 results/DMSO: Table 5. It is filed as cell-based. On the procedure: Reference is now made to FIG. 5 showing the BY-2 viability assay. In this assay, the viability of BY2 Tobacco cells was tested following treatment with the compounds of the present invention. For this purpose, cells were cultured in Murashige and Skoog basal medium (Sigma-Aldrich, Cat #M0404), supplemented with 2,4-dichloro-phenoxyacetic acid (0.2 mg/L), and sucrose (3%), and incubated in the dark, at 25° C. and then sub-cultured at a 1:15 dilution in fresh media every 7 days.
Before treatment, the cell suspension was adjusted to OD=0.4 (at 600 nm) and seeded in 6 well plates with a volume of 3 ml […]. The exemplified compounds were then added to the wells, at a final concentration of 25 μM (0.05% DMSO), and incubated for 48 hours. Cellular viability was measured using the commercially available PrestoBlue™ assay (ThermoFisher Scientific, PrestoBlue™ Cell Viability Reagent Cat #A13261). The PrestoBlue™ reagent is a cell-permeant non-fluorescent compound, which is reduced by metabolically active cells and providing a quantitative fluorescent signal. In the assay, 10 μL of the PrestoBlue™ reagent was added to 90 μL of the treated cells and fluorescence measurements were performed done with excitation/emission wavelengths of 560/590 nm in Tecan M200 plate reader.
Tables 1-3 and also the following Table 5 show the results of the BY-2 viability assay described above.

Assay [2] has as its system E. coli cells lacking the endogenic MetB CGS gene and transformed to express the CGS from Arabidopsis. Description: E. coli specificity (MOA): growth of E. coli expressing Arabidopsis CGS with and without methionine. It is filed as cell-based. The settings on record: score. On the procedure:
In addition to the direct binding evaluation, specific assay to test the compounds activity and specificity were also developed. In this assay, E. coli cells, lacking the endogenic MetB CGS gene and transformed to express the CGS from Arabidopsis, were used. These cells were grown on M9 minimal media with and without external methionine supplemented to the cells, in the presence of the compounds of the embodiments. These selected compounds of the embodiments, capable of inhibiting the cell growth on M9, but incapable of affecting the cell growth when supplemented with methionine, were validated as methionine-pathway specific inhibitors.
In this assay, Methionine auxotroph E. coli mutant was transformed with PQE-30 vector containing the Arabidopsis CGS gene as previously described in Yael Hacham et al., Plant Physiol., February 2002, 128(2): 454-462. In order to test the effect of the small molecule inhibitors on the CGS and methionine pathway, growth curves of the E. coli in M9 minimal media with 100 μM IPTG were measured with and without the addition of external methionine (40 mg/L) in the presence of variable compound concentrations. E. coli growth curves were measured by following the optical density at 600 nm of bacteria in 96 well-plate placed within Tecan M200 plate reader in orbital shaking mode at 37° C. The slope of each curve was estimated using the ‘finest’ function in Excel.

Assay [3] addresses T1, Tobacco CGS. Description: Micro Scale Thermophoresis (MST) direct binding to CGS. Details: 6xHIS (N, cleaved yes); GB1 solubility tag (N, cleaved yes); made in house; host or cells: E. coli BL21. As to conditions: score on scale 0-5; Table 3. On the procedure: The direct binding of the compounds of the embodiments to the CGS was tested by Micro Scale Thermophoresis (MST). In the MST assay, the CGS protein was labelled with a fluorophore, the samples were heated, and changes in fluorescence were measured as a function of the ligand concentration. In the MST assay, similar to the expression and purification described above, the recombinant Tobacco CGS protein was expressed in E. coli BL21 cells and purified to homogeneity. For that particular purpose, the pET-11 vector containing the DNA sequence of Tobacco CGS with an N-terminus 6×HIS tag followed by a TEV-cleavable GB1 solubility tag was cloned and transformed into the bacteria cells. Cells were cultured to OD=0.8, and protein expression was induced by the addition of 1 mM IPTG. The cells were cultured for additional 16 hours temperature 25° C.
Following cellular lysis, the soluble fraction was passed through the nickel column and the bound HIS-tagged protein was eluted by 300 mM imidazole. […]
Thus, the MST assay was performed to measure the biding of the compounds to the CGS protein. […] The MST binding curves were then measured using the Monolith NT.115 apparatus by incubating the labelled protein with the indicated compounds in a dose-response manner.

For the molecule `O=C(O)C1CN(S(=O)(=O)/C=C/c2ccc(Cl)cc2)c2ccccc21` (stereo not shown), the “Arabidopsis (relative to DMSO)” value in the assay with Arabidopsis thaliana (Table 1) came out at 0.04. The “TEV (relative to DMSO)” value on Tobacco CGS [1] (Table 1) came to 0.39. Further, the “Roquette assay spray (twice average)” value with Roquette (Table 1) was determined as 3.0. Further, in the assay with BY2 Tobacco cells (Table 1), the “Tobacco cells BY-2 (relative DMSO)” value is on record as 21.

On to `O=C(O)CC1CN(S(=O)(=O)/C=C/c2ccc(Cl)cc2)c2ccccc21` (stereo not shown), for which the “E. coli specificity (MOA)” value in assay [2] (Table 1) worked out at 2. Further, in the assay with Arabidopsis thaliana (Table 1), the “Arabidopsis (relative to DMSO)” value was 0.04. In the assay with Roquette (Table 1), the “Roquette assay spray (twice average)” value was 3.0. The “Tobacco cells BY-2 (relative DMSO)” value with BY2 Tobacco cells (Table 1) is 12.

Turning to `O=C(O)C1Cc2ccccc2CN1S(=O)(=O)/C=C/c1ccccc1` (stereo not shown), the “E. coli specificity (MOA)” value in assay [2] (Table 1) came to 4. Further, in the assay with Arabidopsis thaliana (Table 1), the “Arabidopsis (relative to DMSO)” value came out at 0.20. The “Tobacco cells BY-2 (relative DMSO)” value in the assay with BY2 Tobacco cells (Table 1) came to 46.

For the molecule `O=C(O)CC1CN(S(=O)(=O)/C=C/c2ccccc2)c2ccccc21` (stereo not shown), the “E. coli specificity (MOA)” value in assay [2] (Table 1) worked out at 5. In the assay with Arabidopsis thaliana (Table 1), the “Arabidopsis (relative to DMSO)” value was determined as 0.08. Moreover, the “TEV (relative to DMSO)” value at Tobacco CGS [1] (Table 1) worked out at 0.25. Besides, the “Roquette assay spray (twice average)” value in the assay with Roquette (Table 1) amounted to 2.5. Moreover, the “Tobacco cells BY-2 (relative DMSO)” value in the assay with BY2 Tobacco cells (Table 1) is on record as 21.

Regarding `COc1cccc2c1CC(C(=O)O)N2S(=O)(=O)/C=C/c1ccccc1Cl` (stereo not shown), the “Arabidopsis (relative to DMSO)” value in the assay on Arabidopsis thaliana (Table 1) is listed as 0.24. In the assay on Roquette (Table 1), the “Roquette assay spray (twice average)” value was 2.0. In addition, in the assay with BY2 Tobacco cells (Table 1), the “Tobacco cells BY-2 (relative DMSO)” value is on record as 17.

Take `COc1cccc2c1[C@@H](C(=O)O)CN2S(=O)(=O)/C=C/c1cccc(Cl)c1`: in the assay on Arabidopsis thaliana (Table 1), the “Arabidopsis (relative to DMSO)” value is 0.01. Also, the “TEV (relative to DMSO)” value at Tobacco CGS [1] (Table 1) turned out to be 0.22. Further, the “Tobacco cells BY-2 (relative DMSO)” value in the assay on BY2 Tobacco cells (Table 1) was 7.

For the molecule `O=C(O)C1Cc2ccccc2N1S(=O)(=O)c1ccc2ccccc2c1` (stereo not shown), the “Arabidopsis (relative to DMSO)” value in the assay with Arabidopsis thaliana (Table 2) worked out at 0.20. Further, the “TEV (relative to DMSO)” value at Tobacco CGS [1] (Table 2) was 0.09. In the assay on Roquette (Table 2), the “Roquette assay spray (twice average)” value is listed as 2.5. In addition, in the assay on BY2 Tobacco cells (Table 2), the “Tobacco cells BY-2 (relative DMSO)” value was 30.

Regarding `O=C(O)C1Cc2ccccc2N1S(=O)(=O)C1Cc2ccccc2C1` (stereo not shown), the “TEV (relative to DMSO)” value on Tobacco CGS [1] (Table 2) is 0.13.

As to `Cc1ccccc1CS(=O)(=O)Nc1ccc2nncn2c1`, in assay [2] (Table 3), the “E. coli specificity (MOA)” value turned out to be 5. Moreover, the “Tobacco cells BY-2 (all (relative to DMSO))” value with BY2 Tobacco cells is reported as 0.

With `O=S(=O)(Cc1ccccc1F)Nc1ccc2nncn2c1`, the “Tobacco cells BY-2 (all (relative to DMSO))” value in the assay with BY2 Tobacco cells came to 0. For the same molecule, the “MST Tobacco (0-5)” value on Tobacco CGS [3] is listed as 5.

`Cc1nc(-c2ccc(C)c(S(=O)(=O)Nc3cccc(C(=O)O)c3)c2)cs1` [IML-193]: the Arabidopsis root length in the assay on Arabidopsis thaliana came out at 0.50.

Regarding `Cc1nc(-c2cccc(S(=O)(=O)Nc3cccc(C(=O)O)c3)c2)cs1` [IML-198], the Arabidopsis root length with Arabidopsis thaliana was found to be 0.31. Further, at Tobacco CGS [1] (Table 6), the “TEV-relative to DMSO” value turned out to be 0.71.

With `COc1cccc(S(=O)(=O)Nc2cccc(-c3cn(Cc4ccccc4)nn3)c2)c1` [IML-226], in the assay on BY2 Tobacco cells, the “Tobacco cells BY-2 results/DMSO” value is given as 60.

As to `CCc1nc(-c2cccc(NS(=O)(=O)c3cccc(OC)c3)c2)no1` [IML-227], in the assay with Arabidopsis thaliana, the Arabidopsis root length was 0.36. For the same molecule, in the assay with BY2 Tobacco cells, the “Tobacco cells BY-2 results/DMSO” value stood at 33.

For the origin of these results see patent US11647748B2, “Sulphonamides as methionine metabolic pathway inhibitors” (MIGAL-GALILEE RESEARCH INSTITUTE LTD., priority 2018, dated 2023).
